In DBAASP:
In brackets after ≈: the same amount, converted by molar mass.

Columns and labels:
Assay in all cases: ≥ marks a high value that may be exact or a test limit, other limits are often not marked, values filed in µg/mL are converted to µM
[1] = test system: Pseudomonas aeruginosa CMCCB 10104
[2] = test system: Candida albicans ATCC 2002
[3] = test system: Staphylococcus aureus ATCC 25923
[4] = test system: Escherichia coli ATCC 25922
Escherichia coli JW0013 = test system: Escherichia coli JW0013
Escherichia coli UB1005 = test system: Escherichia coli UB1005
[5] = test system: Pseudomonas aeruginosa PAO1

| MIC [1] | MIC [2] | MIC [3] | MIC [4] | MIC (Escherichia coli JW0013) | MIC (Escherichia coli UB1005) | MIC [5] | Compound |
| --- | --- | --- | --- | --- | --- | --- | --- |
| 5.05 µM (≈ 10.2 µg/mL) | 2.53 µM (≈ 5.1 µg/mL) | 2.53 µM (≈ 5.1 µg/mL) | 2.53 µM (≈ 5.1 µg/mL) |  |  |  | CC[C@H](C)[C@H](NC(=O)CN)C(=O)N[C@@H](CC(C)C)C(=O)NCC(=O)N[C@@H](CC(N)=O)C(=O)N[C@H](C(=O)N[C@H](C(=O)NCC(=O)N[C@@H](CCSC)C(=O)NCC(=O)N[C@@H](CCCCN)C(=O)N[C@@H](CCC(N)=O)C(=O)N[C@H](C(=O)N[C@H](C(=O)N[C@H]1CSSC[C@@H](C(=O)O)NC(=O)[C@H](CC(C)C)NC(=O)CNC(=O)[C@H](CO)NC(=O)[C@H](CC(C)C)NC(=O)CNC1=O)C(C)C)C(C)C)C(C)C)[C@@H](C)CC [GILGNIVGMGKQVVCGLSGLC] |
| 11.6 µM (≈ 23 µg/mL) | 5.79 µM (≈ 11.5 µg/mL) | 2.92 µM (≈ 5.79 µg/mL) | 5.79 µM (≈ 11.5 µg/mL) |  |  |  | CC[C@H](C)[C@H](NC(=O)CNC(=O)[C@H](CO)NC(=O)[C@H](CC(C)C)NC(=O)[C@@H](NC(=O)CN)[C@@H](C)CC)C(=O)N[C@@H](CC(C)C)C(=O)NCC(=O)N[C@H](C(=O)NCC(=O)N[C@@H](CCCCN)C(=O)N[C@@H](CCCCN)C(=O)N[C@@H](CC(C)C)C(=O)N[C@H](C(=O)N[C@H]1CSSC[C@@H](C(=O)O)NC(=O)[C@H](CC(C)C)NC(=O)CNC(=O)[C@H](CO)NC(=O)[C@H](CC(C)C)NC(=O)CNC1=O)C(C)C)C(C)C [GILSGILGVGKKLVCGLSGLC] |
| 0.699 µM (≈ 3.4 µg/mL) | 0.349 µM (≈ 1.7 µg/mL) | 0.349 µM (≈ 1.7 µg/mL) | 0.699 µM (≈ 3.4 µg/mL) |  |  |  | CC[C@H](C)[C@H](NC(=O)CNC(=O)[C@H](CCCCN)NC(=O)CNC(=O)[C@H](C)NC(=O)[C@H](Cc1ccccc1)NC(=O)[C@H](CCCCN)NC(=O)[C@H](CO)NC(=O)[C@H](Cc1ccccc1)NC(=O)[C@H](CC(C)C)NC(=O)CN)C(=O)N[C@@H](CCCCN)C(=O)N[C@@H](CC(N)=O)C(=O)N[C@@H](Cc1ccccc1)C(=O)N[C@@H](CC(C)C)C(=O)N[C@H](C(=O)N[C@@H](CCCCN)C(=O)NCC(=O)N[C@H](C(=O)N[C@@H](CCCCN)C(=O)N[C@@H](Cc1cnc[nH]1)C(=O)N[C@H](C(=O)NCC(=O)N[C@@H](CCCCN)C(=O)N[C@@H](CCC(=O)O)C(=O)N[C@H](C(=O)NCC(=O)N[C@@H](CCSC)C(=O)N[C@@H](CC(=O)O)C(=O)N[C@H](C(=O)N[C@H](C(=O)N[C@@H](CCCN=C(N)N)C(=O)N[C@H](C(=O)NCC(=O)N[C@H](C(=O)N[C@@H](CC(=O)O)C(=O)N[C@H](C(=O)N[C@@H](C)C(=O)NCC(=O)N[C@H]1CSSC[C@@H](C(=O)O)NC(=O)[C@H](CCC(=O)O)NC(=O)CNC(=O)[C@H](CCCCN)NC(=O)[C@H]([C@@H](C)CC)NC(=O)[C@H](CCCCN)NC1=O)C(C)C)[C@@H](C)CC)[C@@H](C)O)[C@@H](C)CC)C(C)C)C(C)C)[C@@H](C)CC)C(C)C)[C@@H](C)CC [GLFSKFAGKGIKNFLIKGVKHIGKEVGMDVIRTGIDVAGCKIKGEC] |
| 3.46 µM (≈ 11.6 µg/mL) | 3.46 µM (≈ 11.6 µg/mL) | 1.73 µM (≈ 5.8 µg/mL) | 1.73 µM (≈ 5.8 µg/mL) |  |  |  | CC[C@H](C)[C@H](NC(=O)[C@@H](NC(=O)[C@H](CC(=O)O)NC(=O)[C@H](CC(C)C)NC(=O)[C@H](CC(C)C)NC(=O)CN)[C@@H](C)O)C(=O)N[C@@H](CCCCN)C(=O)N[C@@H](CC(N)=O)C(=O)N[C@@H](CCSC)C(=O)N[C@@H](C)C(=O)N[C@@H](CC(C)C)C(=O)N[C@@H](CC(N)=O)C(=O)N[C@@H](C)C(=O)N[C@@H](C)C(=O)N[C@@H](CCCCN)C(=O)N[C@@H](CO)C(=O)N[C@@H](C)C(=O)NCC(=O)N[C@H](C(=O)N[C@@H](CO)C(=O)N[C@H](C(=O)N[C@@H](CC(C)C)C(=O)N[C@@H](CC(N)=O)C(=O)N[C@@H](CO)C(=O)N[C@@H](CC(C)C)C(=O)N[C@@H](CO)C(=O)N[C@H]1CSSC[C@@H](C(=O)O)NC(=O)[C@H]([C@@H](C)O)NC(=O)[C@H](CCCCN)NC(=O)[C@H](CO)NC(=O)[C@H](CC(=O)O)NC(=O)[C@H](CCCCN)NC1=O)C(C)C)C(C)C [GLLDTIKNMALNAAKSAGVSVLNSLSCKDSKTC] |
| 5.57 µM (≈ 21.6 µg/mL) | 2.78 µM (≈ 10.8 µg/mL) | 5.57 µM (≈ 21.6 µg/mL) | 2.78 µM (≈ 10.8 µg/mL) |  |  |  | CC[C@H](C)[C@H](NC(=O)[C@H](CC(C)C)NC(=O)[C@H](CCC(N)=O)NC(=O)[C@@H](NC(=O)[C@H](C)NC(=O)CNC(=O)[C@H](CCCCN)NC(=O)[C@@H](NC(=O)[C@H](CC(C)C)NC(=O)[C@@H](NC(=O)[C@H](Cc1ccccc1)NC(=O)[C@@H](NC(=O)CN)C(C)C)[C@@H](C)O)[C@@H](C)CC)[C@@H](C)O)C(=O)NCC(=O)N[C@@H](CCCCN)C(=O)N[C@H](C(=O)N[C@@H](CC(C)C)C(=O)NCC(=O)N[C@@H](CCCCN)C(=O)N[C@@H](CCC(=O)O)C(=O)N[C@@H](CC(C)C)C(=O)NCC(=O)N[C@@H](CCCCN)C(=O)N[C@H](C(=O)NCC(=O)N[C@@H](CC(C)C)C(=O)N[C@@H](CCC(=O)O)C(=O)N[C@@H](CC(C)C)C(=O)N[C@@H](CCSC)C(=O)N[C@@H](C)C(=O)N[C@H]1CSSC[C@@H](C(=O)O)NC(=O)[C@H](CCC(N)=O)NC(=O)[C@H](CC(N)=O)NC(=O)[C@H]([C@@H](C)O)NC(=O)[C@H]([C@@H](C)CC)NC(=O)[C@H](CCCCN)NC1=O)[C@@H](C)O)[C@@H](C)O [GVFTLIKGATQLIGKTLGKELGKTGLELMACKITNQC] |
| 5.11 µM (≈ 12.4 µg/mL) | 5.11 µM (≈ 12.4 µg/mL) | 5.11 µM (≈ 12.4 µg/mL) | 2.55 µM (≈ 6.2 µg/mL) |  |  |  | CSCC[C@H](NC(=O)[C@H](CCC(=O)O)NC(=O)[C@H](C)NC(=O)[C@H](C)NC(=O)[C@@H](NC(=O)CNC(=O)[C@H](C)NC(=O)[C@@H](NC(=O)[C@H](Cc1ccccc1)NC(=O)[C@H](C)NC(=O)[C@@H](N)CC(C)C)C(C)C)C(C)C)C(=O)N[C@@H](CCSC)C(=O)N[C@@H](CCC(N)=O)C(=O)N[C@@H](Cc1cnc[nH]1)C(=O)N[C@H](C(=O)N[C@@H](Cc1ccc(O)cc1)C(=O)N[C@H]1CSSC[C@@H](C(=O)O)NC(=O)[C@H](CCCCN)NC(=O)[C@H](CCCCN)NC(=O)[C@H](CO)NC(=O)[C@H](C)NC(=O)[C@H](C)NC1=O)C(C)C [LAFVAGVAAEMMQHVYCAASKKC] |
|  |  |  |  | 0.695 µM (≈ 1.7 µg/mL) |  |  | CC[C@H](C)[C@H](NC(=O)[C@H](CCCN=C(N)N)NC(=O)[C@H](CCCN=C(N)N)NC(=O)[C@@H]1CCCN1C(=O)[C@@H]1CCCN1C(=O)[C@H](CCCN=C(N)N)NC(=O)[C@H](CCCCN)NC(=O)[C@H](CCCN=C(N)N)NC(=O)[C@@H]1CCCN1C(=O)[C@H](CC(C)C)NC(=O)[C@H](CCCN=C(N)N)NC(=O)[C@@H]1CCCN1C(=O)[C@H](CCCCN)NC(=O)[C@H](CCCCN)NC(=O)[C@H](CC(=O)O)NC(=O)[C@@H](N)C(C)C)C(=O)N[C@@H](Cc1ccc(O)cc1)C(=O)N[C@@H](CC(N)=O)C(=O)N[C@@H](CCCN=C(N)N)C(N)=O [VDKKPRLPRKRPPRRIYNR] |
|  |  |  |  | 2.06 µM (≈ 4.8 µg/mL) |  |  | CC[C@H](C)[C@H](NC(=O)[C@H](CCCN=C(N)N)NC(=O)[C@H](CCCN=C(N)N)NC(=O)[C@@H]1CCCN1C(=O)[C@@H]1CCCN1C(=O)[C@H](CCCN=C(N)N)NC(=O)[C@@H]1CCCN1C(=O)[C@H](CCCN=C(N)N)NC(=O)[C@@H]1CCCN1C(=O)[C@H](CC(C)C)NC(=O)[C@@H](NC(=O)[C@@H]1CCCN1C(=O)[C@@H]1CCCN1C(=O)[C@H](CCCCN)NC(=O)[C@H](CC(=O)O)NC(=O)[C@@H](N)C(C)C)C(C)C)C(=O)N[C@@H](Cc1ccc(O)cc1)C(=O)N[C@@H](CC(N)=O)C(=O)N[C@@H](CCCN=C(N)N)C(N)=O [VDKPPVLPRPRPPRRIYNR] |
|  |  |  |  | 1.97 µM (≈ 4.8 µg/mL) |  |  | CC[C@H](C)[C@H](NC(=O)[C@H](CCCN=C(N)N)NC(=O)[C@H](CCCN=C(N)N)NC(=O)[C@@H]1CCCN1C(=O)[C@@H]1CCCN1C(=O)[C@H](CCCN=C(N)N)NC(=O)[C@H](Cc1ccccc1)NC(=O)[C@H](CCCN=C(N)N)NC(=O)[C@@H]1CCCN1C(=O)[C@H](CC(C)C)NC(=O)[C@H](Cc1ccc(O)cc1)NC(=O)[C@@H]1CCCN1C(=O)[C@@H]1CCCN1C(=O)[C@H](CCCCN)NC(=O)[C@H](CC(=O)O)NC(=O)[C@@H](N)C(C)C)C(=O)N[C@@H](Cc1ccc(O)cc1)C(=O)N[C@@H](CC(N)=O)C(=O)N[C@@H](CCCN=C(N)N)C(N)=O [VDKPPYLPRFRPPRRIYNR] |
|  |  |  |  | 0.951 µM (≈ 2.4 µg/mL) |  |  | CC[C@H](C)[C@H](NC(=O)[C@H](CCCN=C(N)N)NC(=O)[C@H](CCCN=C(N)N)NC(=O)[C@@H]1CCCN1C(=O)[C@@H]1CCCN1C(=O)[C@H](CCCN=C(N)N)NC(=O)[C@H](CCCCN)NC(=O)[C@H](CCCN=C(N)N)NC(=O)[C@@H]1CCCN1C(=O)[C@H](CCCN=C(N)N)NC(=O)[C@H](Cc1ccc(O)cc1)NC(=O)[C@@H]1CCCN1C(=O)[C@H](CCCN=C(N)N)NC(=O)[C@H](CCCCN)NC(=O)[C@H](CC(=O)O)NC(=O)[C@@H](N)C(C)C)C(=O)N[C@@H](Cc1ccc(O)cc1)C(=O)N[C@@H](CC(N)=O)C(=O)N[C@@H](CCCN=C(N)N)C(N)=O [VDKRPYRPRKRPPRRIYNR] |
|  |  |  |  | 2.01 µM (≈ 4.8 µg/mL) |  |  | CC[C@H](C)[C@H](NC(=O)[C@H](CCCN=C(N)N)NC(=O)[C@H](CCCN=C(N)N)NC(=O)[C@@H]1CCCN1C(=O)[C@@H]1CCCN1C(=O)[C@H](CCCN=C(N)N)NC(=O)[C@@H]1CCCN1C(=O)[C@H](CCCN=C(N)N)NC(=O)[C@@H]1CCCN1C(=O)[C@H](CC(C)C)NC(=O)[C@H](Cc1ccc(O)cc1)NC(=O)[C@@H]1CCCN1C(=O)[C@@H]1CCCN1C(=O)[C@H](CCCCN)NC(=O)[C@H](CC(N)=O)NC(=O)[C@@H](N)C(C)C)C(=O)N[C@@H](Cc1ccc(O)cc1)C(=O)N[C@@H](CC(N)=O)C(=O)N[C@@H](CCCN=C(N)N)C(N)=O [VNKPPYLPRPRPPRRIYNR] |
|  |  | 1.64 µM (≈ 4 µg/mL) |  | 1.36 µM (≈ 3.3 µg/mL) | 0.247 µM (≈ 0.6 µg/mL) | 26.3 µM (≈ 64 µg/mL) | CC[C@H](C)[C@H](NC(=O)[C@H](CCCN=C(N)N)NC(=O)[C@H](CCCN=C(N)N)NC(=O)[C@@H]1CCCN1C(=O)[C@@H]1CCCN1C(=O)[C@H](CCCN=C(N)N)NC(=O)[C@@H]1CCCN1C(=O)[C@H](CCCN=C(N)N)NC(=O)[C@@H]1CCCN1C(=O)[C@H](CC(C)C)NC(=O)[C@H](Cc1ccc(O)cc1)NC(=O)[C@@H]1CCCN1C(=O)[C@@H]1CCCN1C(=O)[C@H](CCCCN)NC(=O)[C@H](CCCN=C(N)N)NC(=O)[C@@H](N)C(C)C)C(=O)N[C@@H](Cc1ccc(O)cc1)C(=O)N[C@@H](CC(N)=O)C(=O)N[C@@H](CCCN=C(N)N)C(N)=O [VRKPPYLPRPRPPRRIYNR] |
